Experimental data from ChEMBL document CHEMBL1201862, “PubChem BioAssay data set” (2004).
Calls of active or inactive are those of the source.

Experiments:
[1] = luciferase reporter signal suppression in cells – H4 neuroglioma cells, luminescence, dose response (AID 1990); assay type: functional, cell-based
[2] = Luminescence Cell-Based Dose Response HTS to Identify Inhibitors of 5'UTR Stem-Loop Driven Prion Protein mRNA Translation in H4 Neuroglioblastoma Cells. [Related pubchem assays: 1827 (Project Summary), 1813 (Primary HTS)]; assay type: functional
[3] = system: Streptococcus; experiment: Luminescence Microorganism-Based Dose Response Follow up to Identify Compounds Cytotoxic to Streptococcus. [Related pubchem assays: 1677 (Project Summary), 1915, 1914, 1902 (Retest at Dose), 1900 (Counter Screen), 1662 (Primary HTS)]; assay type: functional, organism-based
[4] = target: Large T antigen (Simian virus 40, UniProt P03070); assay type: functional, Betapolyomavirus macacae;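 further: Confirmatory-stage PubChem screen for compounds that inhibit SV40 T antigen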
Sequence of Large T antigen (P03070 whole entry): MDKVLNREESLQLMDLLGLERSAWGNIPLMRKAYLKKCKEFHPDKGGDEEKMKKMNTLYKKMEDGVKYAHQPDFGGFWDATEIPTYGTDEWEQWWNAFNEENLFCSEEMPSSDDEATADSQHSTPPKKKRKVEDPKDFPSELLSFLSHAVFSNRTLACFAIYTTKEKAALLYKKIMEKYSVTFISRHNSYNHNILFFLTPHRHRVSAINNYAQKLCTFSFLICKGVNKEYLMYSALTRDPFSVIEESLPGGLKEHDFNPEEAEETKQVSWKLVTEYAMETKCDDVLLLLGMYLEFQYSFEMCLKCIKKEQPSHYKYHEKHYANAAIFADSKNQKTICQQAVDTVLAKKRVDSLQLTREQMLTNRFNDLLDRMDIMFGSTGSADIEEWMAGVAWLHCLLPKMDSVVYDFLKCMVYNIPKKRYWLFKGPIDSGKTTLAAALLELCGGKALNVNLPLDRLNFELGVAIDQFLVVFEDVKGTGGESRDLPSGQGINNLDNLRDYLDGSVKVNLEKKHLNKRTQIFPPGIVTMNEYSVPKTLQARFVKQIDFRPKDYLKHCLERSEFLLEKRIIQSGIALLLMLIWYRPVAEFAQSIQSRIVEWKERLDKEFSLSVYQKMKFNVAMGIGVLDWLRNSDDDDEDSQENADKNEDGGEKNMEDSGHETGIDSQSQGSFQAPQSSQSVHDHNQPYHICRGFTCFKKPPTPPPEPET

[5] = target: T1, High affinity choline transporter 1 (Homo sapiens, UniProt Q9GZV3); experiment: human choline transporter blockers, potency – cell-based, 5-point CRC, membrane potential dye, dose response (AID 504840); assay type: functional
T1 sequence (Q9GZV3 whole entry): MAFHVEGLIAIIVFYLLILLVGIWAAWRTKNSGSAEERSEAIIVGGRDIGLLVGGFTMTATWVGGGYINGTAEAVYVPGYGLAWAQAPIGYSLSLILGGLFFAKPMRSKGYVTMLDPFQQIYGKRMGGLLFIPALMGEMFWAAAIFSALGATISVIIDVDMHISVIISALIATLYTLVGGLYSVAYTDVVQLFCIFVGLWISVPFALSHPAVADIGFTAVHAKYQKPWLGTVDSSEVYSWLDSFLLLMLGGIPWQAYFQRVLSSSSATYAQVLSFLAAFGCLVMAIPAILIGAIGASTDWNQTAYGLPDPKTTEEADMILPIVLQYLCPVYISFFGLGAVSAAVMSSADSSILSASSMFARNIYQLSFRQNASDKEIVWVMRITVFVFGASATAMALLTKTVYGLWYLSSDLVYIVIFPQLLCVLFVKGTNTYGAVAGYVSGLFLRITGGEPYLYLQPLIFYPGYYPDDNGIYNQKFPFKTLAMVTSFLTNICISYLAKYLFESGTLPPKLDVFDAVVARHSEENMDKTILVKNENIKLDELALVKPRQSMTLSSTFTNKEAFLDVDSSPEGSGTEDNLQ

[6] = reduction of Shn3 3'UTR-driven luciferase in osteoblasts – cell-based, Clone20 osteoblasts, firefly luciferase, cherry-picked, dose response (AID 624132); assay type: functional;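 further: firefly luciferase luminescence from reporter carrying the Shn3 3'UTR in osteoblasts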
[7] = target: Paired box protein Pax-8 (Homo sapiens, UniProt Q06710); experiment: PAX8 transcriptional activity inhibition in RMG-I – RMG-I cells, luciferase, cherry-pick, dose response (AID 687027); assay type: functional, cell-based;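 further: luciferase reporter driven by Pax8 target thyroperoxidase promoter measured by SteadyGlo luminescence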
Sequence of Paired box protein Pax-8 (Q06710 whole entry): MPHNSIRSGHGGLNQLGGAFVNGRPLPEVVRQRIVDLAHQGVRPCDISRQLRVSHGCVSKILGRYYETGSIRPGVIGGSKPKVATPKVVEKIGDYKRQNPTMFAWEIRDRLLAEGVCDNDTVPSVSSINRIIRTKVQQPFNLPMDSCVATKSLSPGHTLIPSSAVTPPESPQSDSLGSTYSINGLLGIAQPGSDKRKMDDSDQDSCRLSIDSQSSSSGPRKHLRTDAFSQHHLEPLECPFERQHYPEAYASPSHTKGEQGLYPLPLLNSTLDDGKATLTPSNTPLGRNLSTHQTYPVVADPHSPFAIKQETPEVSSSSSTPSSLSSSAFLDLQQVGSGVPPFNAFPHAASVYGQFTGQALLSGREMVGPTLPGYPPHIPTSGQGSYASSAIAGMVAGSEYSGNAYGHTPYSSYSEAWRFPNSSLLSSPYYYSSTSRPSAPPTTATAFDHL

[8] = target: T2, Zinc finger protein mex-5 (Caenorhabditis elegans, UniProt Q9XUB2); experiment: potency of MEX-5 RNA-binding blockers – biochemical, C. elegans, fluorescence polarization, dose response (AID 1960)
T2 sequence (Q9XUB2 whole entry): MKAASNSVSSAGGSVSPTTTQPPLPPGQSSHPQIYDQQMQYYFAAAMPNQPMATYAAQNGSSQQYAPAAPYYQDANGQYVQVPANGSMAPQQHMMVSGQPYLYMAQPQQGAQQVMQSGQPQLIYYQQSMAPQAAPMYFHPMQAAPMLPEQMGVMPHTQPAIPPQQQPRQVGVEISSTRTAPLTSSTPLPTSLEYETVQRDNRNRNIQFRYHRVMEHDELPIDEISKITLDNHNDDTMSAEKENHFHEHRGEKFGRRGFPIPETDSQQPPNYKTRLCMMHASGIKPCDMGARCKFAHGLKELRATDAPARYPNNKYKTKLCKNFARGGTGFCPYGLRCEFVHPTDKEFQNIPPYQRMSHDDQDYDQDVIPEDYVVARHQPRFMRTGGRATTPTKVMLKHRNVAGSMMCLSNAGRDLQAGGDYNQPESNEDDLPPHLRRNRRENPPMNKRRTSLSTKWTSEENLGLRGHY

[9] = target: T3, Apoptotic protease-activating factor 1 (Homo sapiens, UniProt O14727); assay type: functional
T3 sequence (O14727 whole entry): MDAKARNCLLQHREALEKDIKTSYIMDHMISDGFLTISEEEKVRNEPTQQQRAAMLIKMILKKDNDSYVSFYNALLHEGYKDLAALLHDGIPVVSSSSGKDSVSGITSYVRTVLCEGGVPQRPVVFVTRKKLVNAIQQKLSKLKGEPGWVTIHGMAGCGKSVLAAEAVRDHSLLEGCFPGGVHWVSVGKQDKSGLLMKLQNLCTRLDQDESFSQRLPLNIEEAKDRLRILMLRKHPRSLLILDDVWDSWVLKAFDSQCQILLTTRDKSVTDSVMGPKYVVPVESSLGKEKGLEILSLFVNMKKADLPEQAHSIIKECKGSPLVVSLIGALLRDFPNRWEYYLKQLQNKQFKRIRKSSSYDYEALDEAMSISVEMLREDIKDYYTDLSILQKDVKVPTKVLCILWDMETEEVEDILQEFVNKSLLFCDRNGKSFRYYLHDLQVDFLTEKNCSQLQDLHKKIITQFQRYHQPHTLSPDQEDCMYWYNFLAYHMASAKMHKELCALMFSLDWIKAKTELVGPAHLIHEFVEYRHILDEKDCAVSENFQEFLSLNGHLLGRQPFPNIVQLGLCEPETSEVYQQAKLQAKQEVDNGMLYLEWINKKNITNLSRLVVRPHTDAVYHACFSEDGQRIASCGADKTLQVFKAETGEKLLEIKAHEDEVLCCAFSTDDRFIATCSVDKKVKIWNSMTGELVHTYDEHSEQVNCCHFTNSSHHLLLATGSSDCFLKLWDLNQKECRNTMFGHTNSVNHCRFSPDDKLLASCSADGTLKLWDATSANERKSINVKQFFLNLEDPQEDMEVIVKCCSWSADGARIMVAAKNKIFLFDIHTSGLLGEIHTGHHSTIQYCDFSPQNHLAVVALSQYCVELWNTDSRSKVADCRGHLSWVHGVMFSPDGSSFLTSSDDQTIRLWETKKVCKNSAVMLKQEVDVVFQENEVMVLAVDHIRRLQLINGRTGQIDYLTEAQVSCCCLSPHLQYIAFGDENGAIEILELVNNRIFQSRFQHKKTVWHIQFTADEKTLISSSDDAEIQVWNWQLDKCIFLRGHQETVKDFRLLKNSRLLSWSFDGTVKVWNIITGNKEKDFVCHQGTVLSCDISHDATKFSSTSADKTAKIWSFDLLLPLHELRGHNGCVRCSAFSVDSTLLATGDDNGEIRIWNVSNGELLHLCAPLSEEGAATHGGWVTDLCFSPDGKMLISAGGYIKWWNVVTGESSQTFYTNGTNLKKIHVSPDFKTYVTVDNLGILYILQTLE

[10] = system: Streptococcus sp. 'group A'; experiment: Streptococcus pyogenes SK(-)GAS viability under kanamycin – luminescence, BacTiterGlo, confirmation, counter-screen for streptokinase expression inhibitor project, dose response (AID 1900); assay type: functional, organism-based
[11] = viability loss in HepG2 hepatoma cells – cell-based, ATP luminescence, cherry-pick, activator set 2, cytotoxicity control, dose response (AID 1053143); assay type: functional

For `CCC1CCCCN1S(=O)(=O)c1ccc(NC(=O)c2nc(S(C)(=O)=O)ncc2Cl)cc1` (stereo unspecified), the EC50 [1] was 11.2 µM (active), the EC50 [2] was 11.8 µM (active) and the EC50 [3] was 16.5 µM (active). The IC50 [4] was 44.8 µM (active), the IC50 [5] was 15.8 µM (active) and the AC50 [6] was 0.341 µM (active). The AC50 [7] was 5.67 µM (active).

In the case of `CCCC[n+]1ccn(C2=C([N-]S(=O)(=O)c3ccc(Cl)cc3)C(=O)c3ccccc3C2=O)c1`, the EC50 [8] is reported as 85.9 µM (inconclusive) and the IC50 [9] is reported as 19.3 µM (active).

With `CC(=O)c1cccc2c1N=C(c1[nH]c3ccccc3c1O)C2=O` the EC50 [10] was 3.8 µM (active) and the AC50 [11] was 22.4 µM (active).
